Laboratory results taken from US11059815B2, “Synthesis of small molecule histone deacetylase 6 degraders, compounds formed thereby, and pharmaceutical compositions containing them” (Wisconsin Alumni Research Foundation, priority 2018, dated 2021).

Molecular target: T1, HDAC6 (Homo sapiens, UniProt Q9UBN7)
T1 construct: endogenous in cells; host or cells: MM1S (ATCC CRL-2974)
T1 sequence (Q9UBN7 1-1215): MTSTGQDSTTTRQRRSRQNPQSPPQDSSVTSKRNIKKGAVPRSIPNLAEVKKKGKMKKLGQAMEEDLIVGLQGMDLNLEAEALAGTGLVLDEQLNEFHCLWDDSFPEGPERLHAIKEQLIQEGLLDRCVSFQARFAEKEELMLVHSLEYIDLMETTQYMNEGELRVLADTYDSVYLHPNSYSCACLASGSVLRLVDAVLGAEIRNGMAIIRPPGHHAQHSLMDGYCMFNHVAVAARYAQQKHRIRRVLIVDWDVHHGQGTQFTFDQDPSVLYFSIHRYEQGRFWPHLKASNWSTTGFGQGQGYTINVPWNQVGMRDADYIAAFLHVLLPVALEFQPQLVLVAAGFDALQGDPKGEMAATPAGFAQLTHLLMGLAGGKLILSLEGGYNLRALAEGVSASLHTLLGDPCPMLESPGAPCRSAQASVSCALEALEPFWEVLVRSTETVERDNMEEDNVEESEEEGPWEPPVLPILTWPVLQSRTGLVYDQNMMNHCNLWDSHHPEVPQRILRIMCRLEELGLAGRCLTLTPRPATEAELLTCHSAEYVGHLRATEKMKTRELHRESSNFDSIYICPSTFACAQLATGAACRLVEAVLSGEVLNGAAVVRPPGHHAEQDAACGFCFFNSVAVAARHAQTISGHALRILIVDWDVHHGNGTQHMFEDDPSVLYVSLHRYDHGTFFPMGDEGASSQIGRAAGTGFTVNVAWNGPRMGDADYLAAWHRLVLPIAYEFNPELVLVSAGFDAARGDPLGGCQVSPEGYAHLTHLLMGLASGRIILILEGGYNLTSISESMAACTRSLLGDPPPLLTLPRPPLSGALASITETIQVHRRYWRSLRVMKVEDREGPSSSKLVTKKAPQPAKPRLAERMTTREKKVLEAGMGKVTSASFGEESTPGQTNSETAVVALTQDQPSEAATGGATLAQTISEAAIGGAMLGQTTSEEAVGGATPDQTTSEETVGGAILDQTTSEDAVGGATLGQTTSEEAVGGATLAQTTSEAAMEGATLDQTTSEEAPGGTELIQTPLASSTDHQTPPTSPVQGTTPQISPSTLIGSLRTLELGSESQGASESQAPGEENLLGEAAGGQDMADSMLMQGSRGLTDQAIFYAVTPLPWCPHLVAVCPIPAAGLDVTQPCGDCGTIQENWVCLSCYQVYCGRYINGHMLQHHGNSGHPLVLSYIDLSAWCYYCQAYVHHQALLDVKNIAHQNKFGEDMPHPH
Assay: In-cell ELISA of HDAC6 protein level in MM1S cells
Assay type: cell-based
Details: 6 h; for inhibition at 0.01 µM: 10 nM, n=3, read-out: Degradation (%) 10 nM; for inhibition at 0.01 µM / inhibition at 0.1 µM: 100% minus mean (± SD) relative HDAC6 expression; for inhibition at 0.1 µM: 100 nM, n=3, read-out: Degradation (%) 100 nM
Description: FIG. 9 is a histogram depicting the results of screening of compounds for HDAC6 degradation activity by in-cell ELISA. MM1S cells were treated with compounds at 100 nM (blue bars) or 10 nM (red bars) for 6 h. Data was normalized to vehicle (DMSO)-treated group and the bar graph represents as mean of relative HDAC6 protein level (n=3) with ±SD as error bar. Statistical significance was analyzed by one-way ANOVA. Not significant (ns) P>0.05, *P≤0.05, **P≤0.01, ***P≤0.001, ****P≤0.0001.
FIG. 11 is a graph depicting dose response of selected degrader candidates. MM1S cells were treated for 6 h and analyzed by in-cell ELISA. Data was normalized to vehicle (DMSO)-treated group and dot plot represented as mean relative expression (n=3) with ±SD as error bar. Nonlinear fitting of inhibitor concentration vs. response (three parameters) was generated by GraphPad Prism with R2 from 0.97 to 0.99.
FIG. 15 is a histogram depicting relative HDAC6 expression as a function of linker length for compounds 3a through 3k as described in the Examples section, Part 2. Human MM1S cells were treated with 100 nM degraders for 6 hours and analyzed by in-cell ELISA assay.
FIG. 17 is a dose-response curve for degraders 3j (n=1), 3k (n=12) and 2, at concentrations from 1 nM to 300 nM for 4 h in MM1S. See the Examples, Part 2.
To screen the new series of degraders, an in-cell ELISA assay was developed and validated. The compounds were treated at 100 nM and 10 nM in MM1S cells for 6 h. Resulting cells were then fixed and analyzed by in-cell ELISA. […] Degraders including 1 at 100 nM degraded 73.5% to 85.0% of HDAC6 with minor difference. At 10 nM concentration of compounds, obvious structure-activity-relationship (SAR) was observed. […] For example, 12d, 12h, 12i, 12o and 12p all achieved about 70% degradation. Among the C4-linked series, 12d with medium length linker (5+1) achieved most degradation in sub-series 12a-e (m=1). […] Among C5-linked series, the potency of sub-series 12l-p (m=1) increased with the linker length. […] It appeared that both the distance and linking positions contributed to the degradation efficiency. The rigid triazole ring in the middle of the linker likely modulated the plasticity of degrader-bridged ternary complex.
The amount of cellular HDAC6 was measured in response to concentrations of compounds from 0.1 nM to 1 μM. […] The new degraders had single-digit nanomolar DC50, which was about 3 to 5 fold of improvement from 9.12 nM of degrader 1. […] As discussed above, most PROTACs were designed to avoid degrading other proteins except the targeted POIs. However, in these studies, it was hypothesized that HDAC6 degraders with IKZF degradation will have enhanced anti-proliferation effect MM1S cells.
MM1S cells were harvested and plated with 5×10^5 cells in 100 μL media per well 96-wells plate. After overnight seeding, 25 μL media containing 5× dosing concentration of the compounds or vehicle was added to each well. After 6-hour treatment at 37° C. in a humidified 5% CO2 atmosphere, cells were fixed by adding 125 μL 8% formaldehyde in TBS buffer (137 mM NaCl, 25 mM Tris, 2.7 mM potassium chloride, pH 7.6) and incubated at room temperature (RT) for 15 minutes. Removal of fixing solution was followed by once rinse and twice washes with TBS-T washing buffer (137 mM NaCl, 20 mM Tris, 0.1% Tween, pH 7.6). Cells were then permeabilized by adding 100 μL 0.1% Triton-X in TBS and incubated at RT for 15 minutes. Removal of permeabilizing solution was followed by once rinse and once wash with TBS-T. Cellular endogenous peroxidases were quenched by adding 100 μL 1% H2O2 in TBS and incubation at RT for 20 minutes. Removal of quenching solution was followed by once rinse and once wash with TBS-T. Non-specific binding sites were blocked by adding […] 5% BSA in TBS-T (with 0.02% NaN3) and incubation at 4° C. overnight. […]

inhibition at 0.01 µM (MM1.S) [%]	inhibition at 0.1 µM (MM1.S) [%]	DC50 (0.1 nM to 1 μM, nonlinear fit, ± SD) [nM]	Dmax (MM1.S, 0.1 nM to 1 μM, nonlinear fit, ± SD, read-out: Dmax (Vehicle %)) [%]	SMILES
67.3 ± 0.8	84.1	–	–	CCCCN(Cc1ccc(C(=O)NO)cc1)C(=O)Nc1ccc(OCCCn2cc(CNc3cccc4c3C(=O)N(C3CCC(=O)NC3=O)C4=O)nn2)cc1 (stereo not drawn) [Compound 12b, 4-((1-butyl-3-(4-(3-(4-(((2-(2,6-dioxopiperidin-3-yl)-1,3-dioxoisoindolin-4-yl)amino)methyl)-1H-1,2,3-triazol-1-yl)propoxy)phenyl)ureido)methyl)-N-hydroxybenzamide]
~70	84.7 ± 1	–	–	CCCCN(Cc1ccc(C(=O)NO)cc1)C(=O)Nc1ccc(OCCCCCn2cc(CNc3ccc4c(c3)C(=O)N(C3CCC(=O)NC3=O)C4=O)nn2)cc1 (stereo not drawn) [Compound 12o, 4-((1-butyl-3-(4-((5-(4-(((2-(2,6-dioxopiperidin-3-yl)-1,3-dioxoisoindolin-5-yl)amino)methyl)-1H-1,2,3-triazol-1-yl)pentyl)oxy)phenyl)ureido)methyl)-N-hydroxybenzamide]
~70	83.5 ± 0.5	–	–	CCCCN(Cc1ccc(C(=O)NO)cc1)C(=O)Nc1ccc(OCCCCCCn2cc(CNc3ccc4c(c3)C(=O)N(C3CCC(=O)NC3=O)C4=O)nn2)cc1 (stereo not drawn) [Compound 12p, 4-((1-butyl-3-(4-((6-(4-(((2-(2,6-dioxopiperidin-3-yl)-1,3-dioxoisoindolin-5-yl)amino)methyl)-1H-1,2,3-triazol-1-yl)hexyl)oxy)phenyl)ureido)methyl)-N-hydroxybenzamide]
49.3 ± 0.6	81.8 ± 0.9	–	–	CCCCN(Cc1ccc(C(=O)NO)cc1)C(=O)Nc1ccc(OCCn2cc(CCNc3cccc4c3C(=O)N(C3CCC(=O)NC3=O)C4=O)nn2)cc1 (stereo not drawn) [Compound 12f, 4-((1-butyl-3-(4-(2-(4-(2-((2-(2,6-dioxopiperidin-3-yl)-1,3-dioxoisoindolin-4-yl)amino)ethyl)-1H-1,2,3-triazol-1-yl)ethoxy)phenyl)ureido)methyl)-N-hydroxybenzamide]
45.6 ± 1.6	77.3 ± 1.5	–	–	CCCCN(Cc1ccc(C(=O)NO)cc1)C(=O)Nc1ccc(OCCCn2cc(CCCNc3cccc4c3C(=O)N(C3CCC(=O)NC3=O)C4=O)nn2)cc1 (stereo not drawn) [Compound 12j, 4-((1-butyl-3-(4-(3-(4-(3-((2-(2,6-dioxopiperidin-3-yl)-1,3-dioxoisoindolin-4-yl)amino)propyl)-1H-1,2,3-triazol-1-yl)propoxy)phenyl)ureido)methyl)-N-hydroxybenzamide]
64.8 ± 1	84.2 ± 0.4	–	–	CCCCN(Cc1ccc(C(=O)NO)cc1)C(=O)Nc1ccc(OCCCn2cc(CCNc3cccc4c3C(=O)N(C3CCC(=O)NC3=O)C4=O)nn2)cc1 (stereo not drawn) [Compound 12g, 4-((1-butyl-3-(4-(3-(4-(2-((2-(2,6-dioxopiperidin-3-yl)-1,3-dioxoisoindolin-4-yl)amino)ethyl)-1H-1,2,3-triazol-1-yl)propoxy)phenyl)ureido)methyl)-N-hydroxybenzamide]
60.9 ± 0.4	81.9 ± 0.4	–	–	CCCCN(Cc1ccc(C(=O)NO)cc1)C(=O)Nc1ccc(OCCCn2cc(CCCNc3ccc4c(c3)C(=O)N(C3CCC(=O)NC3=O)C4=O)nn2)cc1 (stereo not drawn) [Compound 12r, 4-((1-butyl-3-(4-(3-(4-(3-((2-(2,6-dioxopiperidin-3-yl)-1,3-dioxoisoindolin-5-yl)amino)propyl)-1H-1,2,3-triazol-1-yl)propoxy)phenyl)ureido)methyl)-N-hydroxybenzamide]
~70	83.1 ± 1	2.54 ± 0.32	86.3 ± 1.67	CCCCN(Cc1ccc(C(=O)NO)cc1)C(=O)Nc1ccc(OCCn2cc(CCCNc3cccc4c3C(=O)N(C3CCC(=O)NC3=O)C4=O)nn2)cc1 (stereo not drawn) [Compound 12i, 4-((1-butyl-3-(4-(2-(4-(3-((2-(2,6-dioxopiperidin-3-yl)-1,3-dioxoisoindolin-4-yl)amino)propyl)-1H-1,2,3-triazol-1-yl)ethoxy)phenyl)ureido)methyl)-N-hydroxybenzamide]
66.1 ± 1.1	77.8 ± 1.7	–	–	CCCCN(Cc1ccc(C(=O)NO)cc1)C(=O)Nc1ccc(OCCCCCCn2cc(CNc3cccc4c3C(=O)N(C3CCC(=O)NC3=O)C4=O)nn2)cc1 (stereo not drawn) [Compound 12e, 4-((1-butyl-3-(4-((6-(4-(((2-(2,6-dioxopiperidin-3-yl)-1,3-dioxoisoindolin-4-yl)amino)methyl)-1H-1,2,3-triazol-1-yl)hexyl)oxy)phenyl)ureido)methyl)-N-hydroxybenzamide]

SMILES	inhibition at 0.01 µM (MM1.S) [%]	inhibition at 0.1 µM (MM1.S) [%]	DC50 (0.1 nM to 1 μM, nonlinear fit, ± SD) [nM]	Dmax (MM1.S, 0.1 nM to 1 μM, nonlinear fit, ± SD, read-out: Dmax (Vehicle %)) [%]
CCCCN(Cc1ccc(C(=O)NO)cc1)C(=O)Nc1ccc(OCCCCn2cc(CCNc3cccc4c3C(=O)N(C3CCC(=O)NC3=O)C4=O)nn2)cc1 (stereo not drawn) [Compound 12h, 4-((1-butyl-3-(4-(4-(4-(2-((2-(2,6-dioxopiperidin-3-yl)-1,3-dioxoisoindolin-4-yl)amino)ethyl)-1H-1,2,3-triazol-1-yl)butoxy)phenyl)ureido)methyl)-N-hydroxybenzamide]	~70	79.2 ± 0.9	–	–
CCCCN(Cc1ccc(C(=O)NO)cc1)C(=O)Nc1ccc(OCCCCn2cc(CCCNc3cccc4c3C(=O)N(C3CCC(=O)NC3=O)C4=O)nn2)cc1 (stereo not drawn) [Compound 12k, 4-((1-butyl-3-(4-(4-(4-(3-((2-(2,6-dioxopiperidin-3-yl)-1,3-dioxoisoindolin-4-yl)amino)propyl)-1H-1,2,3-triazol-1-yl)butoxy)phenyl)ureido)methyl)-N-hydroxybenzamide]	50.9 ± 2.2	75.7 ± 0.8	–	–
